ChEMBL document CHEMBL1201862, “PubChem BioAssay data set” (2004)
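Each compound was tested at five concentrations against cells in 96-well plates for 48 hours. Abbreviation: GI50, concentration required for 50% inhibition of growth.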 Calls of active or inactive are those of the source. No stated cut-off is given here; in the data, active = GI50 up to about 1.1 µM and inactive = higher.

How the values were obtained:
Test in all cases: growth of human tumour cells (NCI), 48 h
MDA-N = tested on: MDA-N
NCI-H23 = tested on: NCI-H23
M14 = tested on: M14
MOLT-4 = tested on: MOLT-4
Malme-3M = tested on: Malme-3M
NCI/ADR-RES = tested on: NCI/ADR-RES
BT-549 = tested on: BT-549
EKVX = tested on: EKVX
HOP-62 = tested on: HOP-62
RXF 393 = tested on: RXF 393
SN12C = tested on: SN12C
A498 = tested on: A498
SK-MEL-28 = tested on: SK-MEL-28
SW-620 = tested on: SW-620
DU-145 = tested on: DU-145
SK-OV-3 = tested on: SK-OV-3
SK-MEL-2 = tested on: SK-MEL-2
OVCAR-4 = tested on: OVCAR-4
NCI-H226 = tested on: NCI-H226
HL-60 = tested on: HL-60
SNB-19 = tested on: SNB-19
HOP-92 = tested on: HOP-92
HT-29 = tested on: HT-29
K562 = tested on: K562
SR = tested on: SR
OVCAR-5 = tested on: OVCAR-5
NCI-H522 = tested on: NCI-H522
786-0 = tested on: 786-0
U-251 = tested on: U-251
IGROV-1 = tested on: IGROV-1
ACHN = tested on: ACHN
UACC-257 = tested on: UACC-257
RPMI-8226 = tested on: RPMI-8226
SF-268 = tested on: SF-268
HCT-15 = tested on: HCT-15
COLO 205 = tested on: COLO 205
CCRF-CEM = tested on: CCRF-CEM
T47D = tested on: T47D
HCT-116 = tested on: HCT-116
MDA-MB-231 = tested on: MDA-MB-231
LOX IMVI = tested on: LOX IMVI
TK-10 = tested on: TK-10
SK-MEL-5 = tested on: SK-MEL-5
Hs-578T = tested on: Hs-578T
OVCAR-8 = tested on: OVCAR-8
MDA-MB-435 = tested on: MDA-MB-435
MCF7 = tested on: MCF7
SF-539 = tested on: SF-539
UO-31 = tested on: UO-31
CAKI-1 = tested on: CAKI-1
KM12 = tested on: KM12
A549 = tested on: A549
OVCAR-3 = tested on: OVCAR-3
PC-3 = tested on: PC-3
SF-295 = tested on: SF-295
NCI-H460 = tested on: NCI-H460
HCC 2998 = tested on: HCC 2998
UACC-62 = tested on: UACC-62
SNB-75 = tested on: SNB-75

CCOc1cc(C2CC(c3ccc(NS(=O)(=O)c4cc([N+](=O)[O-])ccc4C)cc3)=NN2S(=O)(=O)c2cc([N+](=O)[O-])ccc2C)ccc1O (stereo not drawn)
GI50 (MDA-N): 43.3 µM (inactive) | GI50 (NCI-H23): 30.6 µM (inactive) | GI50 (M14): 34.1 µM (inactive) | GI50 (MOLT-4): 30.4 µM (inactive) | GI50 (Malme-3M): 23.3 µM (inactive) | GI50 (NCI/ADR-RES): 39.4 µM (inactive) | GI50 (BT-549): 39.4 µM (inactive) | GI50 (EKVX): 22.1 µM (inactive) | GI50 (HOP-62): 30.8 µM (inactive) | GI50 (RXF 393): 29 µM (inactive) | GI50 (SN12C): 28.4 µM (inactive) | GI50 (A498): 2.44 µM (inactive) | GI50 (SK-MEL-28): 83 µM (inactive) | GI50 (SW-620): 64.7 µM (inactive) | GI50 (DU-145): 43.8 µM (inactive) | GI50 (SK-OV-3): 39.9 µM (inactive) | GI50 (SK-MEL-2): 22.6 µM (inactive) | GI50 (OVCAR-4): 38.6 µM (inactive) | GI50 (NCI-H226): 31.6 µM (inactive) | GI50 (HL-60): 38.5 µM (inactive) | GI50 (SNB-19): 43.6 µM (inactive) | GI50 (HOP-92): 17.5 µM (inactive) | GI50 (HT-29): 49.3 µM (inactive) | GI50 (K562): 35.1 µM (inactive) | GI50 (SR): 32.4 µM (inactive) | GI50 (OVCAR-5): > 100 µM (inactive) | GI50 (NCI-H522): 22.9 µM (inactive) | GI50 (786-0): 33.3 µM (inactive) | GI50 (U-251): 30.7 µM (inactive) | GI50 (IGROV-1): 18.5 µM (inactive) | GI50 (ACHN): 39.6 µM (inactive) | GI50 (UACC-257): 32.7 µM (inactive) | GI50 (RPMI-8226): 34.3 µM (inactive) | GI50 (SF-268): 39.7 µM (inactive) | GI50 (HCT-15): 39 µM | GI50 (COLO 205): 37.4 µM (inactive) | GI50 (CCRF-CEM): 33 µM (inactive) | GI50 (T47D): 19.8 µM (inactive) | GI50 (HCT-116): 36.5 µM (inactive) | GI50 (MDA-MB-231): 32.1 µM (inactive) | GI50 (LOX IMVI): 40.1 µM (inactive) | GI50 (TK-10): 36.4 µM (inactive) | GI50 (SK-MEL-5): 18.5 µM (inactive) | GI50 (Hs-578T): 42.4 µM (inactive) | GI50 (OVCAR-8): 42.8 µM (inactive) | GI50 (MDA-MB-435): 38.4 µM (inactive) | GI50 (MCF7): 31.9 µM (inactive) | GI50 (SF-539): 33.7 µM (inactive) | GI50 (UO-31): 32.6 µM (inactive) | GI50 (CAKI-1): 42.9 µM (inactive) | GI50 (KM12): 41.1 µM (inactive) | GI50 (A549): 32.4 µM (inactive) | GI50 (OVCAR-3): 23.4 µM (inactive) | GI50 (PC-3): 32.7 µM (inactive) | GI50 (SF-295): 31.9 µM (inactive)

O=C1C[C@@H](C(=O)OCc2ccccc2)NC(=O)C[C@@H](C(=O)OCc2ccccc2)NC(=O)C[C@@H](C(=O)OCc2ccccc2)N1
GI50 (MDA-N): > 100 µM (inactive) | GI50 (NCI-H23): 47 µM (inactive) | GI50 (M14): > 92.9 µM (inactive) | GI50 (MOLT-4): 4.15 µM (inactive) | GI50 (NCI/ADR-RES): > 100 µM (inactive) | GI50 (BT-549): > 100 µM (inactive) | GI50 (EKVX): > 100 µM (inactive) | GI50 (HOP-62): 33.9 µM (inactive) | GI50 (RXF 393): 13.3 µM (inactive) | GI50 (SN12C): > 100 µM (inactive) | GI50 (A498): 27.5 µM (inactive) | GI50 (SK-MEL-28): > 100 µM (inactive) | GI50 (SW-620): > 100 µM (inactive) | GI50 (DU-145): > 100 µM (inactive) | GI50 (SK-OV-3): 20.8 µM (inactive) | GI50 (SK-MEL-2): 13 µM (inactive) | GI50 (OVCAR-4): > 100 µM (inactive) | GI50 (NCI-H226): > 100 µM (inactive) | GI50 (HL-60): 0.659 µM (active) | GI50 (SNB-19): 45.5 µM (inactive) | GI50 (NCI-H460): > 100 µM (inactive) | GI50 (HOP-92): 20.7 µM (inactive) | GI50 (HT-29): > 100 µM (inactive) | GI50 (K562): 4.16 µM (inactive) | GI50 (SR): 4.06 µM (inactive) | GI50 (OVCAR-5): > 100 µM (inactive) | GI50 (NCI-H522): 36.6 µM (inactive) | GI50 (786-0): 21 µM (inactive) | GI50 (U-251): 12.1 µM (inactive) | GI50 (IGROV-1): 98.6 µM (inactive) | GI50 (ACHN): 23 µM (inactive) | GI50 (HCC 2998): > 95.9 µM (inactive) | GI50 (UACC-257): > 100 µM (inactive) | GI50 (RPMI-8226): 38.8 µM (inactive) | GI50 (SF-268): 15.2 µM (inactive) | GI50 (HCT-15): > 100 µM | GI50 (COLO 205): > 100 µM (inactive) | GI50 (CCRF-CEM): 0.0675 µM (active) | GI50 (UACC-62): 64.7 µM (inactive) | GI50 (T47D): > 100 µM (inactive) | GI50 (HCT-116): > 84.1 µM (inactive) | GI50 (MDA-MB-231): 14 µM (inactive) | GI50 (LOX IMVI): > 100 µM (inactive) | GI50 (TK-10): 19.6 µM (inactive) | GI50 (SK-MEL-5): > 100 µM (inactive) | GI50 (Hs-578T): 13.1 µM (inactive) | GI50 (OVCAR-8): > 100 µM (inactive) | GI50 (MDA-MB-435): > 100 µM (inactive) | GI50 (MCF7): > 100 µM (inactive) | GI50 (SF-539): 18.5 µM (inactive) | GI50 (UO-31): > 100 µM (inactive) | GI50 (CAKI-1): > 100 µM (inactive) | GI50 (KM12): > 100 µM (inactive) | GI50 (A549): > 100 µM (inactive) | GI50 (OVCAR-3): > 100 µM (inactive) | GI50 (SNB-75): 1.06 µM (active) | GI50 (PC-3): > 100 µM (inactive) | GI50 (SF-295): 20 µM (inactive)
